Measured values from patent US11339153B2, “Compounds useful in modulating the farnesoid X receptor and methods of making and using the same” (Inorbit Therapeutics AB, priority 2018, dated 2022).

Key:
[1] = target: T1, Human FXR receptor (NR1H4) (Homo sapiens, UniProt Q96RI1); experiment: Human Farnesoid X Receptor (NR1H4, FXR) Reporter Assay (Indigo Bioscience kit, luciferase); format: cell-based; conditions: for EC50: Human FXR (NR1H4) reporter assay, 22-24 h incubation; for Efficacy (%): normalized to GW4064 set as 100%
T1 sequence (Q96RI1 1-486): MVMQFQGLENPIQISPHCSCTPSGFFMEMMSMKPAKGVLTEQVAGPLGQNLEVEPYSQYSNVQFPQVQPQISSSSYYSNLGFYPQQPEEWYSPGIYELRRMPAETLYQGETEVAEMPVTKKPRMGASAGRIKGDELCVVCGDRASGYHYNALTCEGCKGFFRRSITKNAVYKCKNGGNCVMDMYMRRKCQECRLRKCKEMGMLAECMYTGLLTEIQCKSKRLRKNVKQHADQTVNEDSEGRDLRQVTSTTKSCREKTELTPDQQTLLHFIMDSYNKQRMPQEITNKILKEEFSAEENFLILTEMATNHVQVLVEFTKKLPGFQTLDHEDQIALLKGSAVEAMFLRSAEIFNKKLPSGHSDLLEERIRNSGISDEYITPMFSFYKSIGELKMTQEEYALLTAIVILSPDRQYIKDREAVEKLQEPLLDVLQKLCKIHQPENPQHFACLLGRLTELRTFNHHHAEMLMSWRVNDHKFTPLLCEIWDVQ
Text: Human Farnesoid X Receptor (NR1H4, FXR) Reporter Assay
Determination of a ligand mediated Ga14 promoter driven transactivation to quantify ligand binding mediated activation of FXR. A FXR Reporter Assay kit was purchased from Indigo Bioscience (#IB00601-32) to determine the potency and efficacy of compounds that can induce FXR activation. The nuclear receptor assay system utilizes non-human mammalian cells engineered to provide constitutive high level expression of Human FXR receptor (NR1H4), a ligand-dependent transcription factor. The reporter cells include luciferase reporter gene functionality linked to an FXR-response promoter. Quantifying changes in luciferase expression in the treated reporter cells provides a sensitive surrogate measure of the changes in FXR activity.
The reporter cells incorporate the cDNA encoding beetle luciferase, a protein that catalyses the mono-oxidation of D-luciferin in a Mg^2+ dependent reaction that consumes O2 and ATP as co-substrates, yielding the products Oxylucifern, AMP, PPi, CO2 and photon (light) emission. Luminescence intensity of the reaction is quantified using a luminometer, and is reported in terms of Relative Light Units (RLU's).
The assay was performed according to the manufacturer's instructions. In brief, the test compounds were weighed and dissolved in phosphate buffer solution as a 10 mM stock and diluted to the appropriate concentration using Compound Screening Medium (CSM). The frozen reporter cells were thawed and suspended in Cell Recovery Medium at 37° C. The compounds were then immediately added to the cell plate and the plate was placed into a 37° C., humidified CO2 incubator for 22-24 h. After incubation, the media was carefully removed, Luciferase detection solution was added and the plate read in a Luminometer. The data was calculated as per kit instructions, with increases in luminescence being directly proportional to increases in compound agonist activity.

[2] = Metabolic identification in hepatocytes (mouse); format: in vitro ADME
Description: (§1) Metabolic Identification in Hepatocytes.
(§2) A 10 mM stock of test compound from Example 4 (sodium 2-(3-((5-cyclopropyl-3-(2-(trifluoromethoxy)phenyl)isoxazol-4-yl)methoxy)-8-azabicyclo[3.2.1]octan-8-yl)-4-fluorobenzo[d]thiazole-6-sulfinate) was prepared in DMSO. 20 μM of final working stock was then prepared by diluting 4 μL of 10 mM stock in 1996 μL of Krebs-Hensleit buffer. 200 μL of hepatocyte cell suspension (2×10^6 cells/mL) was added to TPP 48 well plate and preincubated for 30 min@37° C. in incubator. 200 μL of 20 μM working stock of test compound was added to the cell suspension and incubated in an incubator on vibramax at a shaking speed of 500 rpm. For the 0 min sample, 25 μL of hepatocyte suspension was precipitated with 200 μL of acetonitrile and 25 μL of 20 μM test compound was added. The reaction was stopped at 15, 30, 60, 90, 120 min by precipitating 50 μL of incubation mixture with 200 μL of acetonitrile. The samples were vortexed for 5 min at 1200 rpm and centrifuged at 4000 rpm for 10 min. The supernatant was separated, diluted 2 fold with water and analysed using a HPLC (Shimadzu SIL HTS) and mass spectrometer (5500 Qtrap). Acetonitrile and 0.1% formic acid in Milli-q-water were used as the mobile phase, using a column of either Waters Xbridge C18, 250×3.0 mm, 5.0μ particle size or Phenomnex kinetex 5μ EVO C18 100 A, 50×4.6 mm 5.0μ particle size. […]

[3] = Metabolic identification in hepatocytes (human); format: in vitro ADME
Description: as §1
A 10 mM stock of test compound from Example 4 (sodium 2-(3-((5-cyclopropyl-3-(2-(trifluoromethoxy)phenyl)isoxazol-4-yl)methoxy)-8-azabicyclo[3.2.1]octan-8-yl)-4-fluorobenzo[d]thiazole-6-sulfinate) was prepared in DMSO. 20 μM of final working stock was then prepared by diluting 4 μL of 10 mM stock in 1996 μL of Krebs-Hensleit buffer. 200 μL of hepatocyte cell suspension (2×10^6 cells/mL) was added to TPP 48 well plate and preincubated for 30 min@37° C. in incubator. 200 μL of 20 μM working stock of test compound was added to the cell suspension and incubated in an incubator on vibramax at a shaking speed of 500 rpm. For the 0 min sample, 25 μL of hepatocyte suspension was precipitated with 200 μL of acetonitrile and 25 μL of 20 μM test compound was added. The reaction was stopped at 15, 30, 60, 90, 120 min by precipitating 50 μL of incubation mixture with 200 μL of acetonitrile. The samples were vortexed for 5 min at 1200 rpm and centrifuged at 4000 rpm for 10 min. The supernatant was separated, diluted 2 fold with water and analysed using a HPLC (Shimadzu SIL HTS) and mass spectrometer (5500 Qtrap). Acetonitrile and 0.1% formic acid in Milli-q-water were used as the mobile phase, using a column of either Waters Xbridge C18, 250×3.0 mm, 5.0μ particle size or Phenomnex kinetex 5μ EVO C18 100 A, 50×4.6 mm 5.0μ particle size.
Table 3 summarizes the major metabolites observed when the compound of Example 4 of the invention was incubated in human, dog or mouse hepatocytes.

[4] = Metabolic identification in hepatocytes (dog); format: in vitro ADME
Description: as §1, §2

[5] = Metabolism in human microsomes; format: in vitro ADME; conditions: 37° C.; for % remaining @ 45 mins of incubation with UDPGA: co-factor UDPGA only; for % remaining @ 45 mins of incubation with UDPGA and NADPH: co-factors UDPGA and NADPH
Description: Metabolism in Human Microsomes
Microsomal mixes (247.5 μL) of human microsomes (1250 μL, 4 mg/ml), potassium phosphate buffer (1250 μL), alamethecin (12.5 μL, 5 mg/ml) and cofactors Nicotinamide Adenine Dinucleotide Phosphate NADPH (1250 μL, 4 mM)/uridine 5′-diphospho-glucuronic acid UDPGA (1250 μL, 4 mM) or UDPGA only were loaded onto a shaker for 10 minutes. The test compound (2.5 μL, 100 μM) was then separately added to both microsomal mixes (i.e., one mix with NADPH and one mix without NADPH), incubated at 37° C. and sampled at predetermined time points. Analysis was performed using a AB SCIEX QTRAP 4500 LC-MS/MS, a Kinetex C18, 50*4.6 mm, 5 μm column and eluting with 10 mM Ammonium Acetate/Methanol.
Table 2 summarizes the % of compound remaining after 45 minutes of incubation with human microsomes either in the presence of co-factors UDPGA and NADPH or UDPGA only.

Row | SMILES | EC50 [1] [µM] | Efficacy (%) [1] [%] | Acyl-Glucuronide [2] | Observed Major Metabolites [2] | Acyl-Glucuronide [3] | Observed Major Metabolites [3] | major metabolites formed (MS/MS spectra, FIG. 1) ([3]; incubation for 120 mins) | Acyl-Glucuronide [4] | Observed Major Metabolites [4] | % remaining @ 45 mins of incubation with UDPGA [5] [%] | % remaining @ 45 mins of incubation with UDPGA and NADPH [5] [%]
1 | O=S([O-])c1cc(F)c2nc(N3[C@@H]4CC[C@H]3C[C@@H](OCc3c(-c5ccccc5OC(F)(F)F)noc3C3CC3)C4)sc2c1.[Na+] [Example 4, Sodium 2-(3-((5-cyclopropyl-3-(2-(trifluoromethoxy)phenyl)isoxazol-4-yl)methoxy)-8-azabicyclo[3.2.1]octan-8-yl)-4-fluorobenzo[d]thiazole-6-sulfinate] | < 0.5 | 94 | No | Hydroxy, Di-hydroxy and Alkenyl-hydroxy | No | Hydroxy, Alkenyl and Alkenyl-hydroxy | consistent with oxidative metabolism to give the corresponding hydroxy compound | No | Alkenyl-hydroxy | 94 | 52
2 | O=S([O-])c1cccc(N2CC(O)(c3ccc(OCc4c(-c5c(Cl)cccc5Cl)noc4C4CC4)cc3Cl)C2)c1.[Na+] [Example 6, Sodium 3-(3-(2-chloro-4-((5-cyclopropyl-3-(2,6-dichlorophenyl)isoxazol-4-yl)methoxy)phenyl)-3-hydroxyazetidin-1-yl)benzenesulfinate] | > 5 | 96 | – | – | – | – | – | – | – | 92 | 26
3 | O=S(O)c1ccc(C2CC(O)(c3ccc(OCc4c(-c5c(Cl)cccc5Cl)noc4C4CC4)cc3Cl)C2)cc1 (stereo not drawn) [Example 7, Sodium 4-(3-(2-chloro-4-((5-cyclopropyl-3-(2,6-dichlorophenyl)isoxazol-4-yl)methoxy)phenyl)-3-hydroxycyclobutyl)benzenesulfinic acid] | > 5 | 89 | – | – | – | – | – | – | – | 95 | 38
4 | O=S(O)c1ccc(C2CC2c2ccc(OCc3c(-c4c(Cl)cccc4Cl)noc3C3CC3)cc2Cl)cc1 (stereo not drawn) [Example 8, Sodium 4-(2-(2-chloro-4-((5-cyclopropyl-3-(2,6-dichlorophenyl)isoxazol-4-yl)methoxy)phenyl)cyclopropyl)benzenesulfinate] | 0.5 to 5 | 127 | – | – | – | – | – | – | – | – | –
